Measurements reported in publication PMC9516332 (Frontiers in Oncology, 2022).
Where two headings read alike, the source gives them in different places.

Test system: 134 cancer cell lines
Experiment: Cell viability assay (ATPlite, 72 hours), IC50 on cancer cell line panel

Cn1cc(-c2cc3c(N4CCN(c5ncc([C@@](C)(N)c6ccc(F)cc6)cn5)CC4)ncnn3c2)cn1 [avapritinib]
IC50 (Homo sapiens, LS-411N, read-out: IC50 in cell proliferation assay): 10.8 µM | IC50 (Homo sapiens, LoVo, read-out: IC50 in cell proliferation assay): 6.42 µM | IC50 (Homo sapiens, MCF7, read-out: IC50 in cell proliferation assay): 17.3 µM | IC50 (Homo sapiens, MDA-MB-231, read-out: IC50 in cell proliferation assay): 8.5 µM | IC50 (Homo sapiens, MDA-MB-453, read-out: IC50 in cell proliferation assay): 1.08 µM | IC50 (Homo sapiens, MDA-MB-468, read-out: IC50 in cell proliferation assay): 12.6 µM | IC50 (Homo sapiens, MG-63, read-out: IC50 in cell proliferation assay): 11.1 µM | IC50 (Homo sapiens, MIA PaCa-2, read-out: IC50 in cell proliferation assay): 11 µM | IC50 (Homo sapiens, MKN-45, read-out: IC50 in cell proliferation assay): 5.03 µM | IC50 (Homo sapiens, MOLM-13, read-out: IC50 in cell proliferation assay): 0.465 µM | IC50 (Homo sapiens, MOLT-4, read-out: IC50 in cell proliferation assay): 6.63 µM | IC50 (Homo sapiens, MV4-11, read-out: IC50 in cell proliferation assay): 0.47 µM | IC50 (Homo sapiens, MeWo, read-out: IC50 in cell proliferation assay): > 31.6 µM | IC50 (Homo sapiens, NCCIT, read-out: IC50 in cell proliferation assay): 3.52 µM | IC50 (Homo sapiens, NCI-H82, read-out: IC50 in cell proliferation assay): 2.42 µM | IC50 (Homo sapiens, NCI-H460, read-out: IC50 in cell proliferation assay): 16 µM | IC50 (Homo sapiens, NCI-H661, read-out: IC50 in cell proliferation assay): 1.66 µM | IC50 (Homo sapiens, NCI-H716, read-out: IC50 in cell proliferation assay): 6.81 µM | IC50 (Homo sapiens, NCI-H1650, read-out: IC50 in cell proliferation assay): 19.6 µM | IC50 (Homo sapiens, NCI-H1975, read-out: IC50 in cell proliferation assay): 11.1 µM | IC50 (Homo sapiens, NCI-H2228, read-out: IC50 in cell proliferation assay): 9.99 µM | IC50 (Homo sapiens, OVCAR-3, read-out: IC50 in cell proliferation assay): 22.1 µM | IC50 (Homo sapiens, PFSK-1, read-out: IC50 in cell proliferation assay): 13.8 µM | IC50 (Homo sapiens, RL95-2, read-out: IC50 in cell proliferation assay): 28.3 µM | IC50 (Homo sapiens, RPMI-7951, read-out: IC50 in cell proliferation assay): 13.5 µM | IC50 (Homo sapiens, RS4-11, read-out: IC50 in cell proliferation assay): 21 µM | IC50 (Homo sapiens, Rec1, read-out: IC50 in cell proliferation assay): 28.9 µM | IC50 (Homo sapiens, SHP77, read-out: IC50 in cell proliferation assay): 2.22 µM | IC50 (Homo sapiens, SK-BR-3, read-out: IC50 in cell proliferation assay): 8.31 µM | IC50 (Homo sapiens, SK-N-AS, read-out: IC50 in cell proliferation assay): 20.8 µM | IC50 (Homo sapiens, SK-N-FI, read-out: IC50 in cell proliferation assay): > 31.6 µM | IC50 (Homo sapiens, SK-N-MC, read-out: IC50 in cell proliferation assay): 6.43 µM | IC50 (Homo sapiens, SK-N-SH, read-out: IC50 in cell proliferation assay): 7.42 µM | IC50 (Homo sapiens, SNU-5, read-out: IC50 in cell proliferation assay): 9.36 µM | IC50 (Homo sapiens, SNU-16, read-out: IC50 in cell proliferation assay): 2.03 µM | IC50 (Homo sapiens, SNU-C2B, read-out: IC50 in cell proliferation assay): 10.5 µM | IC50 (Homo sapiens, SU-DHL-1, read-out: IC50 in cell proliferation assay): 2.31 µM | IC50 (Homo sapiens, SU-DHL-6, read-out: IC50 in cell proliferation assay): 3.18 µM | IC50 (Homo sapiens, SUP-T1, read-out: IC50 in cell proliferation assay): 9.11 µM | IC50 (Homo sapiens, SW48, read-out: IC50 in cell proliferation assay): 5.58 µM | IC50 (Homo sapiens, SW480, read-out: IC50 in cell proliferation assay): 25.4 µM | IC50 (Homo sapiens, SW626, read-out: IC50 in cell proliferation assay): 20.2 µM | IC50 (Homo sapiens, SW780, read-out: IC50 in cell proliferation assay): 19.3 µM | IC50 (Homo sapiens, SW837, read-out: IC50 in cell proliferation assay): > 31.6 µM | IC50 (Homo sapiens, SW872, read-out: IC50 in cell proliferation assay): 6.31 µM | IC50 (Homo sapiens, SW900, read-out: IC50 in cell proliferation assay): 21.9 µM | IC50 (Homo sapiens, SW948, read-out: IC50 in cell proliferation assay): 14 µM | IC50 (Homo sapiens, SW982, read-out: IC50 in cell proliferation assay): 10.8 µM | IC50 (Homo sapiens, SW-620, read-out: IC50 in cell proliferation assay): > 31.6 µM | IC50 (Homo sapiens, T98G, read-out: IC50 in cell proliferation assay): 0.372 µM | IC50 (Homo sapiens, TCC-SUP, read-out: IC50 in cell proliferation assay): 2.7 µM | IC50 (Homo sapiens, THP-1, read-out: IC50 in cell proliferation assay): 5.42 µM | IC50 (Homo sapiens, U2OS, read-out: IC50 in cell proliferation assay): 16.3 µM | IC50 (Homo sapiens, U-87 MG, read-out: IC50 in cell proliferation assay): 22.9 µM | IC50 (Homo sapiens, U-118-MG, read-out: IC50 in cell proliferation assay): 1.1 µM | IC50 (Homo sapiens, UMUC3, read-out: IC50 in cell proliferation assay): 5.49 µM | IC50 (Hs766T, read-out: IC50 in cell proliferation assay): > 31.6 µM | IC50 (L-82, read-out: IC50 in cell proliferation assay): 8.39 µM | IC50 (Rh30, read-out: IC50 in cell proliferation assay): 14.9 µM
